Entries after “also recorded” stand apart in the source; their conditions may differ.
Experiments:
Type in all cases: cell-based
[1] = system: MTNR1A gene expression in oral squamous-cell carcinoma cell lines (TOSCa-50, ZA, and NA); experiment: Recovery of MTNR1A gene expression by demethylation, examined by RT-PCR
Experimental: (C) MTNR1A expression was recovered by a demethylation treatment performed on cells in which the gene was not expressed. The cells were treated using a 1 μM or 5 μM demethylating reagent 5-aza-dCyd for 5 days and/or using a deacetylation inhibitory agent TSA (100 ng/ml) for 12 hours. GAPDH was used as an internal control.
Specifically, single-stranded cDNA was synthesized from the RNA extracted from each cultured cell line using the SuperScript First-Strand Synthesis System (Invitrogen). Moreover, a glyceraldehyde-3-phosphate dehydrogenase (GAPDH) gene was used as a control.
In order to examine if the suppressed expression of the MTNR1A gene was due to DNA methylation, oral squamous-cell carcinoma cell lines (TOSCa-50, ZA, and NA) that had not expressed the MTNR1A gene were treated with a 1 μM or 5 μM demethylating reagent 5-aza-dCyd for 5 days and/or with a deacetylation inhibitory agent TSA (100 ng/ml) for 12 hours. RNAs were extracted from these cells, and MTNR1A gene expression was then examined by RT-PCR (FIG. 2c).

[2] = system: CYP4V2 gene expression in cell lines with decreased expression; experiment: CYP4V2 gene expression after treatment with 5-aza-dCyd and/or TSA
Experimental: (§1) (A) The expression status of a DKFZP564J gene and a CYP4V2 gene in cell lines in which the expression levels of the aforementioned genes had been decreased, which were treated with 5-aza-dCyd and/or TSA.

[3] = system: DKFZP564J gene expression in cell lines with decreased expression; experiment: DKFZP564J gene expression after treatment with 5-aza-dCyd and/or TSA
Experimental: as §1

| SMILES | MTNR1A gene expression (RT-PCR) ([1]; 1 μM or 5 μM 5-aza-dCyd for 5 days, NA cells not expressing MTNR1A) | CYP4V2 gene expression [2] | DKFZP564J gene expression [3] | MTNR1A gene expression (RT-PCR) ([1]; TSA 100 ng/ml for 12 hours, NA cells) |
| --- | --- | --- | --- | --- |
| Nc1ncn([C@H]2C[C@H](O)[C@@H](CO)O2)c(=O)n1 [5-aza-dCyd, 5-azadeoxycytidine] | recovers its gene expression; also recorded: possible to recover the expression level of the MTNR1A gene | gene expression was not recovered | gene expression was not recovered | – |
| CC(/C=C/C(=O)NO)=C\[C@@H](C)C(=O)c1ccc(N(C)C)cc1 [TSA] | – | – | – | no differences in MTNR1A gene expression |
